Measurements reported in publication PMC9127750, “Structure-based design of CDC42 effector interaction inhibitors for the treatment of cancer” (Cell reports, 2022).
Where two headings read alike, the source gives them in different places.

Legend:
Experiment in all cases: cells
A2058 = details: Homo sapiens, A2058, read-out: IC50 ARN22089
Experimental: (§1) Cancer cell line viability assay was performed using a CellTiterGlo assay. Cells were cultured in their appropriate media and seeded in white multi-well plates. For the assays, cells were incubated with compound at 37°C overnight, and a CellTiterGlo assay was performed to quantify viable cells.

A375 = details: Homo sapiens
Experimental: as §1

A498 = details: Homo sapiens, A498, read-out: IC50 ARN22089
Experimental: as §1

A549 = details: Homo sapiens, A549, read-out: IC50 ARN22089
Experimental: as §1

Caki-1 = details: Homo sapiens, CAKI-1, read-out: IC50 ARN22089
Experimental: as §1

Colo 205 = details: Homo sapiens, COLO 205, read-out: IC50 ARN22089
Experimental: as §1

DLD-1 = details: Homo sapiens, DLD-1, read-out: IC50 ARN22089
Experimental: as §1

H460 = details: Homo sapiens, NCI-H460, read-out: IC50 ARN22089
Experimental: as §1

HCC1569 = details: Homo sapiens, HCC1569, read-out: IC50 ARN22089
Experimental: as §1

HCC827 = details: Homo sapiens, HCC827, read-out: IC50 ARN22089
Experimental: as §1

HCT-15 = details: Homo sapiens, HCT-15, read-out: IC50 ARN22089
Experimental: as §1

HEC-1-A = details: Homo sapiens, read-out: IC50 ARN22089
Experimental: as §1

HEC-1-B = details: Homo sapiens, read-out: IC50 ARN22089
Experimental: as §1

Hutu 80 = details: Homo sapiens, HuTu80, read-out: IC50 ARN22089
Experimental: as §1

K562 = details: Homo sapiens, K562, read-out: IC50 ARN22089
Experimental: as §1

KARPAS 299 = details: Homo sapiens, KARPAS-299, read-out: IC50 ARN22089
Experimental: as §1

LOU-NH91 = details: LOU-NH91, read-out: IC50 ARN22089
Experimental: as §1

LnCap = details: Homo sapiens, read-out: IC50 ARN22089
Experimental: as §1

M07e = details: M-07e, read-out: IC50 ARN22089
Experimental: as §1

MCAS = details: read-out: IC50 ARN22089
Experimental: as §1

MKN-45 = details: Homo sapiens, MKN-45, read-out: IC50 ARN22089
Experimental: as §1

MV4-11 = details: Homo sapiens, MV4-11, read-out: IC50 ARN22089
Experimental: as §1

MiaPaCA2 = details: Homo sapiens, MIA PaCa-2, read-out: IC50 ARN22089
Experimental: as §1

NCI-H1573 = details: Homo sapiens, NCI-H1573, read-out: IC50 ARN22089
Experimental: as §1

NCI-H1581 = details: Homo sapiens, NCI-H1581, read-out: IC50 ARN22089
Experimental: as §1

NCI-H292 = details: Homo sapiens, NCI-H292, read-out: IC50 ARN22089
Experimental: as §1

NCI-H441 = details: Homo sapiens, NCI-H441, read-out: IC50 ARN22089
Experimental: as §1

NCI-H838 = details: Homo sapiens, NCI-H838, read-out: IC50 ARN22089
Experimental: as §1

P31/FUJ = details: Homo sapiens, read-out: IC50 ARN22089
Experimental: as §1

PANC-1 = details: Homo sapiens, PANC-1, read-out: IC50 ARN22089
Experimental: as §1

RERF-LC-MS = details: read-out: IC50 ARN22089
Experimental: as §1

RPMI 8226 = details: Homo sapiens, RPMI-8226, read-out: IC50 ARN22089
Experimental: as §1

SCLC-21H = details: Homo sapiens, read-out: IC50 ARN22089
Experimental: as §1

SK-MEL-3 = details: Homo sapiens, SK-MEL3, read-out: IC50 ARN22089
Experimental: as §1

SK-OV3 = details: Homo sapiens, SK-OV-3, read-out: IC50 ARN22089
Experimental: as §1

SKMel3 = details: Homo sapiens, SK-MEL3, read-out: IC50 Skmel3
Experimental: as §1

SNU-1 = details: Homo sapiens, SNU1, read-out: IC50 ARN22089
Experimental: as §1

SW948 = details: Homo sapiens, SW948, read-out: IC50 ARN22089
Experimental: as §1

T84 = details: Homo sapiens, T84, read-out: IC50 ARN22089
Experimental: as §1

U2OS = details: Homo sapiens, read-out: IC50 ARN22089
Experimental: as §1

[1] = system: WM3248, SKMel3, A375, SW480, and SKM28; details: WM3248, SKMel3, A375, and SW480
Experimental: as §1

CN(C)c1cccc(Nc2cc(-c3ccccc3)nc(C3CCNCC3)n2)c1 [ARN22089, N1,N1-dimethyl-N3-(6-phenyl-2-(piperidin-4-yl)pyrimidin-4-yl)benzene-1,3-diamine]
IC50 (A2058): 3.7 µM | IC50 (A375; A-375, read-out: IC50 A375): 4.92 µM | IC50 (A375; A-375, read-out: IC50 ARN22089): 4.5 µM | IC50 (A498): 10 µM | IC50 (A549): 11 µM | IC50 (Caki-1): 11 µM | IC50 (Colo 205): 7 µM | IC50 (DLD-1): 5 µM | IC50 (H460): 8.5 µM | IC50 (HCC1569): 11 µM | IC50 (HCC827): 11 µM | IC50 (HCT-15): 8.7 µM | IC50 (HEC-1-A): 9.5 µM | IC50 (HEC-1-B): 18 µM | IC50 (Hutu 80): 12 µM | IC50 (K562): 9 µM | IC50 (KARPAS 299): 11 µM | IC50 (LOU-NH91): 29 µM | IC50 (LnCap): 14 µM | IC50 (M07e): 11 µM | IC50 (MCAS): 4.6 µM | IC50 (MKN-45): 4.1 µM | IC50 (MV4-11): 4.4 µM | IC50 (MiaPaCA2): 8.3 µM | IC50 (NCI-H1573): 24 µM | IC50 (NCI-H1581): 24 µM | IC50 (NCI-H292): 12 µM | IC50 (NCI-H441): 12 µM | IC50 (NCI-H838): 12 µM | IC50 (P31/FUJ): 14 µM | IC50 (PANC-1): 11 µM | IC50 (RERF-LC-MS): 12 µM | IC50 (RPMI 8226): 5.8 µM | IC50 (SCLC-21H): 5.4 µM | IC50 (SK-MEL-3): 3.3 µM | IC50 (SK-OV3): 7.6 µM | IC50 (SKMel3): 4.26 µM | IC50 (SNU-1): 7.8 µM | IC50 (SW948): 8.3 µM | IC50 (T84): 5.3 µM | IC50 (U2OS): 11 µM | IC50 activity against the more sensitive cell lines [1]: single-digit micromolar
